This is an account of results in ChEMBL document CHEMBL1201862, “PubChem BioAssay data set” (2004).

Common to all, as to experiment: NCI tumour cell line growth inhibition, 48 h
The subject of experiment [1] is DLD-1.
Experiment [2] concerns HOP-18.
For experiment [3], the system named is KM-20L2.
For experiment [4], the system named is LXFL 529.
Experiment [5] has as its system M19-MEL.
The subject of experiment [6] is RXF 631.
Experiment [7] concerns SNB-78.
Experiment [8] has as its system DMS-273.
The subject of experiment [9] is XF498.

SMILES strings stand for the structures.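 Five concentrations, 48 hours, 96-well plates. Here, GI50 denotes the concentration required for 50% inhibition of growth.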 Active and inactive are the calls of the source. Rule as the data show it: active = GI50 up to about 1.1 µM and inactive = higher. Bounds are passed on as bounds.

Turning to `c1ccc(CN2COc3c(ccc4c5c(ccc34)CN(Cc3ccccc3)CO5)C2)cc1`, the GI50 is > 100 µM (inactive) in experiment [1]; 52 µM (inactive) in experiment [2]; 26.2 µM (inactive) in [3]; > 100 µM (inactive) in experiment [4]; > 100 µM (inactive) in experiment [5]; > 100 µM (inactive) in [6]. Moreover, the GI50 in experiment [7] was > 100 µM (inactive).
On to `COc1cccc2c1C(CO)N1C(C#N)C3CC(C(=O)O)C(C1C2)N3C` (stereo not given), for which the GI50 is 2.79 µM (inactive) in experiment [1]; 2.77 µM (inactive) in [8]; 3.33 µM (inactive) in experiment [3]; 2.56 µM (inactive) in experiment [4]; 3.54 µM (inactive) in experiment [5]; 2.81 µM (inactive) in [7]. The GI50 in [9] was 1.61 µM (inactive).
As to `NC(CCSCC(F)F)C(=O)O` (stereo not given), the GI50 in experiment [1], in experiment [8], in experiment [2], in [3], in experiment [4] and in [5] was > 100 µM (inactive) in each case. The GI50 in experiment [6], in experiment [7] and in [9] was > 100 µM (inactive) in each case.
Regarding `CC(C)OP(=O)(OC(C)C)/C(Cl)=N/Nc1ccc([N+](=O)[O-])cc1`, the GI50 is > 100 µM (inactive) in [1]; > 100 µM (inactive) in experiment [8]; 50.8 µM (inactive) in [3]; 34.7 µM (inactive) in experiment [4]; > 100 µM (inactive) in experiment [5]; 80.4 µM (inactive) in experiment [7]. Moreover, the GI50 in experiment [9] is > 100 µM (inactive).
For `COc1ccc(O)c2c(=O)ccccc12`, the GI50 in experiment [1], in experiment [8], in experiment [4], in experiment [5], in [6] and in experiment [7] was > 100 µM (inactive) throughout. The GI50 in experiment [9] was 2.69 µM (inactive).
Consider `O=C1CCNC/C1=C\c1ccccc1`, for which the GI50 is 18.9 µM (inactive) in [1]; 25.8 µM (inactive) in experiment [8]; > 10 µM (inactive) in experiment [2]; 14.7 µM (inactive) in experiment [3]; 16.1 µM (inactive) in experiment [4]; 17.9 µM (inactive) in experiment [5]. Also, the GI50 in [6] was 26.5 µM (inactive); in experiment [7], 32.8 µM (inactive); in experiment [9] it was 23.9 µM (inactive).
Turning to `COc1ccc(/C=N/N=C(\N)NO)c(OC)c1`, the GI50 is > 100 µM (inactive) in experiment [1]; 14.6 µM (inactive) in experiment [2]; 8.81 µM (inactive) in experiment [4]; 24.5 µM (inactive) in [5]; > 100 µM (inactive) in experiment [7].
Consider `COc1cc([C@@H]2c3cc4c(cc3[C@@H](NC(=O)c3cccc(F)c3)C3COC(=O)[C@@H]32)OCO4)cc(OC)c1O` (stereo not given in full), for which the GI50 in [1] was 2.32 µM (inactive); in [8] it was 0.153 µM (active); in [2], > 100 µM (inactive); in experiment [3] it was 1.68 µM (inactive); in [4] it was 5.5 µM (inactive); in experiment [5], 3.22 µM (inactive). Also, in [7], the GI50 is 15.5 µM (inactive).
Take `COC(=O)C1(O)c2ccccc2N=C2C1CCN2C` (stereo not given): the GI50 in experiment [1], in [2], in experiment [3], in [4], in experiment [7] and in [9] was > 100 µM (inactive) in each case.
With `CC1=CP(=O)(c2ccccc2)C=C(C)C1=C(Cl)Cl` (stereo not given), the GI50 in experiment [1] is 8.17 µM (inactive); in [8], 3.3 µM (inactive); in experiment [2], 18.7 µM (inactive); in [3] it was 2.48 µM (inactive); in experiment [4], 3.27 µM (inactive); in experiment [5], 12.2 µM (inactive). In addition, the results for the GI50 in [7] and in experiment [9] were 2.98 µM (inactive) and 17.4 µM (inactive), respectively.
Consider `COc1cc2c(cc1OC)-c1c(cc(OC)c(OC)c1OC)C2=O`, for which the GI50 was > 100 µM (inactive) in [1]; > 100 µM (inactive) in experiment [2]; > 100 µM (inactive) in experiment [3]; > 100 µM (inactive) in experiment [4]; > 100 µM (inactive) in experiment [5]; 92.9 µM (inactive) in [6].
Regarding `O=C1C2Nc3ccccc3SC2C(=O)N1c1ccc(Br)cc1` (stereo not given), the GI50 in [1] is 15.2 µM (inactive); in [8] it was 21.6 µM (inactive); in experiment [3] it was 33.2 µM (inactive); in experiment [4] it was 20.7 µM (inactive); in experiment [5] it was 57.1 µM (inactive); in experiment [7], 14.2 µM (inactive). Besides, the GI50 in [9] is 35.6 µM (inactive).
Consider `Cc1cc(C(=O)N2CCN(Cc3ccccc3)CC2)c(C)o1`, for which the GI50 in experiment [1], in [2], in experiment [3], in experiment [4], in experiment [5] and in experiment [7] was > 100 µM (inactive) throughout. Further, in [9], the GI50 was > 100 µM (inactive).
With `COc1cc(O)c2c(c1)O[C@@H]1OCC[C@H]21`, the GI50 in experiment [1], in experiment [8], in experiment [2], in experiment [3], in experiment [4] and in experiment [7] was > 100 µM (inactive) each time. Further, the GI50 in experiment [9] is > 100 µM (inactive).
`COC(=O)C1CSC(c2csc(CCN)n2)=N1` (stereo not given): the GI50 in [8], in experiment [2], in [3], in experiment [4], in experiment [5] and in experiment [7] was > 100 µM (inactive) throughout. For the same molecule, the GI50 in experiment [9] was > 100 µM (inactive).
In the case of `CCN(CC)CC(C(=O)Nc1c(C)cccc1C)/C(C)=N\NC(=S)NN` (stereo not given), the GI50 in experiment [1], in experiment [8], in experiment [3], in experiment [4], in experiment [5] and in experiment [6] was > 100 µM (inactive) throughout. Besides, in experiment [9], the GI50 was > 100 µM (inactive).
On to `CCOC(=O)NC(=O)c1cn(C2CCCCC2)c(=O)[nH]c1=O`, for which the GI50 in [1] was 61.8 µM (inactive); in [8], 73.3 µM (inactive); in experiment [2], > 100 µM (inactive); in experiment [3], 36.3 µM (inactive); in [4] it was 39.7 µM (inactive); in experiment [5], 76.4 µM (inactive). Also, the GI50 is > 100 µM (inactive) in experiment [6], 65.9 µM (inactive) in [7] and > 100 µM (inactive) in experiment [9].
As to `N#CCc1nc2c(s1)C(=O)c1ccccc1C2=O`, the GI50 is 15.8 µM (inactive) in experiment [8]; 13.8 µM (inactive) in experiment [2]; 38.4 µM (inactive) in experiment [3]; 15 µM (inactive) in experiment [4]; 2.84 µM (inactive) in experiment [5]; 18.2 µM (inactive) in experiment [6]. Moreover, in [7], the GI50 was 20 µM (inactive).
Regarding `NC(=S)NNc1c([N+](=O)[O-])cnn(-c2ccccc2)c1=O`, the GI50 in experiment [1] is 14.4 µM (inactive); in [8], 18.3 µM (inactive); in experiment [3] it was 15.9 µM (inactive); in experiment [4], 9.02 µM (inactive); in experiment [5], 13.2 µM (inactive); in experiment [7], 23.3 µM (inactive). The GI50 in experiment [9] is 18.7 µM (inactive).
With `COc1cc2c[n+]3ccc4cc(OC)c(OC)cc4c3cc2cc1O`, the GI50 in [1], in experiment [2], in [3], in experiment [4], in [5] and in experiment [6] was > 100 µM (inactive) throughout. Also, the GI50 in [9] is > 100 µM (inactive).
`CCOC(=O)NC(=O)c1cn(CCCOC(=O)NCCCCCCNC(=O)OCCCn2c(=O)c(C(=O)NC(=O)OCC)cn(C)c2=O)c(=O)n(C)c1=O`: the GI50 was > 100 µM (inactive) in experiment [1]; > 100 µM (inactive) in experiment [8]; 52.4 µM (inactive) in experiment [2]; > 100 µM (inactive) in [3]; > 100 µM (inactive) in experiment [4]; > 100 µM (inactive) in experiment [5]. Moreover, the GI50 in [6] is > 100 µM (inactive).
With `CCOC(=O)C(=O)Nc1nc2ccc(OC)cc2s1`, the GI50 in [1], in [8], in experiment [2], in [3], in experiment [4] and in [5] was > 100 µM (inactive) in each case. Also, the GI50 in experiment [7] is > 100 µM (inactive).
For `c1c[nH]c(Cc2nc(Cc3c[nH]cn3)c[nH]2)n1`, the GI50 was 4.22 µM (inactive) in [1]; 15.2 µM (inactive) in experiment [8]; 8.28 µM (inactive) in experiment [2]; 0.946 µM (active) in experiment [3]; 6.7 µM (inactive) in [4]; 15.4 µM (inactive) in experiment [5]. In addition, the GI50 in experiment [9] was 25.8 µM (inactive).
Take `Nc1ncnc2c1ncn2C1(CO)OC(CO)C(O)C1O` (stereo not given): the GI50 in experiment [1], in experiment [8], in [2], in [3], in [4] and in experiment [6] was > 100 µM (inactive) each time. For the same molecule, the GI50 in experiment [7] and in experiment [9] was > 100 µM (inactive) each time.
As to `CC1(C)COC(C2(C)C(=O)C=C(c3ccccc3)c3ccccc32)=N1` (stereo not given), the GI50 in [1] was 66.4 µM (inactive); in experiment [2], > 100 µM (inactive); in experiment [3], 40.5 µM (inactive); in [4], 41.3 µM (inactive); in experiment [5] it was 42.8 µM (inactive); in [6], 33 µM (inactive).
Take `Clc1cc2nc[nH]c2cc1Cl`: the GI50 in experiment [1], in [8], in [2], in experiment [4], in [5] and in experiment [7] was > 100 µM (inactive) in each case. Moreover, in experiment [9], the GI50 was 20.1 µM (inactive).
